Data on four compounds can be found in PubChem BioAssay AID1963833 (Molecular Pharmacology Branch, DTP, NCI, 2024).

In the assay the test system is 883617-216-R-J1-PDC complex spheroid viability. Description: Anticancer human tumor 883617-216-R-J1-PDC patient-derived bladder carcinoma cell line growth inhibition [POLQ]. Particulars: for viability, T/C: stronger effect = lower value. How it is done: Multicellular complex tumor spheroid response to Polymerase (POL) inhibitors (novobiocin, ART-558, RP6685) in combination with a variety of drugs and investigational agents in selected tumor cell lines
The POL inhibitors (novobiocin, ART-558, and RP6685) were evaluated both individually and in combination with standard of care and investigational anticancer small molecules within a complex spheroid model of solid tumors. . Complex spheroids include a stromal component modeled by human endothelial cells (HUVEC) and fibroblasts modeled by human mesenchymal stem cells (MSCs). The concentration ranges selected for each drug and investigational agent were based upon clinically achievable concentrations if the clinical Cmax of the agent was known.
Compounds. The drugs and investigational agents: novobiocin (NSC847541), ART-558 (NSC835418), RP-6685 (NSC848927), peposertib (NSC802822), ceralasertib (NSC780249), elimusertib (NSC800525), camonsertib (NSC841442), AZD-1390 (NSC803789), olaparib (NSC753686), talazoparib (NSC767125), rucaparib (NSC756644), sotorasib (NSC818433), MRTX-1133 (NSC836407), SN-38 (NSC673596), topotecan (NSC609699), epotoside (NSC141540), doxorubicin (NSC123127), gemcitabine (NSC613327), 5-fluorouracil (NSC19893), paclitaxel (NSC125973), vemurafenib (NSC761431), MSA-2 (NSC828583), SN-011 (NSC837082), adavosertib (NSC754352), prexasertib (NSC758257), carboplatin (NSC241240) and oxaliplatin (NSC266046), were obtained from the National Cancer Institute (NCI) Developmental Therapeutics Program Chemical Repository (21). The FDA-approved anticancer drug set is available from the Developmental Therapeutics Program at https://dtp.cancer.gov/organization/dscb/obtaining/. […] The stock solutions were prepared in dimethyl sulfoxide (DMSO, Sigma-Aldrich, St. Louis, MO, cat. D2650), except for the platinum compounds which were prepared in saline (Quality Biological, Gaithersburg, MD, cat. 114-055-101), at 800-fold the tested concentration and stored at -70 degrees C prior to their use. All drugs and investigational agents were tested over a range starting from a high concentration at or near the clinical Cmax and decreasing in half-log increments. If the clinical Cmax for an agent had not been determined, the highest concentration tested was 10 microM, except for SN-38, which was tested at a high concentration of 1 microM.
Cell Culture. All cells were maintained in an incubator at 37 degrees C and 5% CO2 with 95% humidity. The PDC lines were cultured according to standard operating procedures established by the NCI PDMR (https://pdmr.cancer.gov). Table 3 of the manuscript, lists the cell lines along with the number of the three cell types plated to form the mct-spheroids and media for tumor cell growth. After thawing, all PDC lines, except 997537-175-T-J1-PDC and 415267-285-R-J2-PDC, were cultured in Matrigel-coated flasks prepared with a working solution of 1X Ham's F-12 nutrient mix, without supplementation (Thermo Fisher Scientific, cat. 11765054), 100 U/mL penicillin-streptomycin (Thermo Fisher Scientific, cat. 15140122), and 2.5% Matrigel (Corning Inc., Corning, NY, cat. 354248) for the first three passages. The two PDC lines 997537-175-T-J1-PDC and 415267-285-R-J2-PDC were cultured on uncoated flasks. The 857933-349-R-J2-PDC line was cultured in 6C/Colon 1B media containing advanced DMEM/F-12 (Thermo Fisher Scientific, cat. 12634028), 10 mM HEPES (Thermo Fisher Scientific, cat. 15630080), 1X GlutaMAX supplement (Thermo Fisher Scientific, cat. 35050061), 0.1 mg/mL primocin (InvivoGen, San Diego, CA, cat. ant-pm-2), 10% defined fetal bovine serum, heat inactivated (HyClone Laboratories Inc., Logan, UT, cat. SH30070.03HI), 50% L-WRN conditioned media (ATCC, cat. CRL-3276), 1.25 mM N-Acetyl-L-cysteine (Sigma-Aldrich, cat. A9165), 10 mM nicotinamide (Sigma-Aldrich, cat. N0636), 1X B-27 supplement (Thermo Fisher Scientific, cat. 17504044), 1X N-2 supplement (Thermo Fisher Scientific, cat. […]

The term viability, T/C denotes the result in the treated group divided by that in the control group, in per cent. By IC50 is commonly meant the concentration needed to halve the response being measured.

Several values for one entry are separate records, joined by “and”; a condition that tells them apart may be missing. Identical values can stand only once. Some results are limits rather than exact numbers.
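Also: spheroids exposed to compounds for seven days before readout.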

For `COc1cc(C2c3cc4c(cc3C(OC3OC5COC(C)OC5C(O)C3O)C3COC(=O)C23)OCO4)cc(OC)c1O` (stereo not drawn), the viability, T/C (compound 0.0316 µM) is 99.9% and 95.2% and 109%; the viability, T/C (compound 0.1 µM) is 86.2% and 78.2% and 89.1%; the viability, T/C (compound 0.316 µM) was 85.3% and 96.4% and 83.7%; the viability, T/C (compound 1 µM) is 63.6% and 76.7% and 66.2%; the viability, T/C (compound 3.16 µM) was 61.5% and 67.9% and 60%; the viability, T/C (compound 10 µM) was 47.5% and 57.3% and 49.9%. Also, the half-maximal inhibitory concentration (IC50) (curve of compound) is 8.18 µM and > 10 µM.
Take `C#Cc1c(F)ccc2cc(O)cc(-c3ncc4c(N5CC6CCC(C5)N6)nc(OCC56CCCN5CC(F)C6)nc4c3F)c12` (stereo not drawn): the viability, T/C was 98% and 83% and 93.6% (compound 0.0316 µM); 95% and 94% and 84.2% (compound 0.1 µM); 101% and 82% and 104% (compound 0.316 µM); 95.3% and 81.1% and 88.5% (compound 1 µM); 94.2% and 83% and 85.1% (compound 3.16 µM); 72.5% and 74.3% and 83.1% (compound 10 µM). Further, where the note is “curve of compound”, the IC50 is greater than 10 µM.
`Nc1ccn(C2OC(CO)C(O)C2(F)F)c(=O)n1` (stereo not drawn): the viability, T/C is 32.7% and 33% and 32.6% (compound 0.0316 µM); 30.6% and 36.1% and 29.3% (compound 0.1 µM); 32.9% and 36.7% and 46.2% (compound 0.316 µM); 39.7% and 42.4% and 33.9% (compound 1 µM); 36.2% and 41.4% and 31.7% (compound 3.16 µM); 26.8% and 42.1% and 30.9% (compound 10 µM). In addition, the 50% inhibitory concentration (IC50) (curve of compound) was less than 0.0316 µM.
Turning to `O=c1[nH]cc(F)c(=O)[nH]1` + COC1C(OC(N)=O)C(O)C(Oc2ccc3c(O)c(NC(=O)c4ccc(O)c(CC=C(C)C)c4)c(=O)oc3c2C)OC1(C)C, the IC50 is greater than 10 µM (curve of first compound, second compound 0.0316 µM); greater than 10 µM (curve of first compound, second compound 0.1 µM); greater than 10 µM (curve of first compound, second compound 0.316 µM); greater than 10 µM (curve of first compound, second compound 1 µM); greater than 10 µM (curve of first compound, second compound 3.16 µM); greater than 10 µM (curve of first compound, second compound 10 µM). For the same compound, the viability, T/C is, setting by setting: (second compound 0.0316 µM, first compound 0.0316 µM) 106%; (second compound 0.0316 µM, first compound 0.1 µM) 96.4%; (second compound 0.0316 µM, first compound 0.316 µM) 104%; (second compound 0.0316 µM, first compound 1 µM) 105%; (second compound 0.0316 µM, first compound 3.16 µM) 76.7%; (second compound 0.0316 µM, first compound 10 µM) 59.8%. Further, the viability, T/C runs as follows: (second compound 0.1 µM, first compound 0.0316 µM) 103%; (second compound 0.1 µM, first compound 0.1 µM) 105%; (second compound 0.1 µM, first compound 0.316 µM) 99.4%; (second compound 0.1 µM, first compound 1 µM) 94.6%; (second compound 0.1 µM, first compound 3.16 µM) 70.9%; (second compound 0.1 µM, first compound 10 µM) 60.9%. Further, the viability, T/C is, setting by setting: (second compound 0.316 µM, first compound 0.0316 µM) 88.2%; (second compound 0.316 µM, first compound 0.1 µM) 99.6%; (second compound 0.316 µM, first compound 0.316 µM) 92.2%; (second compound 0.316 µM, first compound 1 µM) 93%; (second compound 0.316 µM, first compound 3.16 µM) 84.4%; (second compound 0.316 µM, first compound 10 µM) 63.5%. For the same compound, the viability, T/C (second compound 1 µM, first compound 0.0316 µM) is 104%; the viability, T/C (second compound 1 µM, first compound 0.1 µM) is 94.2%; the viability, T/C (second compound 1 µM, first compound 0.316 µM) is 117%; the viability, T/C (second compound 1 µM, first compound 1 µM) was 80.2%; the viability, T/C (second compound 1 µM, first compound 3.16 µM) was 78%; the viability, T/C (second compound 1 µM, first compound 10 µM) is 69%. Besides, the viability, T/C is, setting by setting: (second compound 3.16 µM, first compound 0.0316 µM) 112%; (second compound 3.16 µM, first compound 0.1 µM) 92.8%; (second compound 3.16 µM, first compound 0.316 µM) 95.5%; (second compound 3.16 µM, first compound 1 µM) 91.7%; (second compound 3.16 µM, first compound 3.16 µM) 84.9%; (second compound 3.16 µM, first compound 10 µM) 65.4%. Further, the viability, T/C was 95.2% (second compound 10 µM, first compound 0.0316 µM); 99.6% (second compound 10 µM, first compound 0.1 µM); 99.7% (second compound 10 µM, first compound 0.316 µM); 85.3% (second compound 10 µM, first compound 1 µM); 81.4% (second compound 10 µM, first compound 3.16 µM); 78.2% (second compound 10 µM, first compound 10 µM).
